# Assays:
# [1] = test system: brain tumor cells; assay: MTT cytotoxicity, values summarised over brain tumor cells; format: cell-based; settings: range over U87, U118, KELLY, Neuro2a; read-out: IC50 against brain malignant cells
# Protocol: To evaluate the antitumor activity of the synthesized soloxolone amides in brain tumor cells, the cytotoxicity of compounds 4–12, predicted as BBB-permeable (Figure 3), was further analyzed in human glioblastoma U87 and U118 cells, as well as human neuroblastoma KELLY and murine neuroblastoma Neuro2a cells.
# The cells in the exponential growth phase were seeded in quadruplicate in 96-well plates at a density of 1 × 10^4 cells/well for HeLa, U87, U118, KELLY and Neuro2a cells; 1.5 × 10^4 cells/well for HuTu-80 cells; 2 × 10^4 cells/well for B16 cells; and 7 × 10^3 cells/well for hFF3 fibroblasts. Cells were incubated under standard conditions overnight followed by their treatment with the investigated compounds (1–20 µM) for 24 h. Then, 10 µL of MTT solution was added to the cells to a final concentration of 0.5 mg/mL and plates were placed under standard conditions for 3 h followed by an aspiration of MTT-containing medium and a dissolution of formazan crystals with 100 µL of DMSO. The absorbance of each well was read at test and reference wavelengths of 570 and 620 nm, respectively, on a Multiscan RC plate reader (Thermo LabSystems, Helsinki, Finland).
# [2] = Brain accumulation of 12 by HPLC–MS/MS; format: in vivo, Balb/C nude mice; settings: seven injections
# Protocol: (seven injections were performed in total) and brain tissue was collected 48 h after the last injection of 12 followed by a high-performance liquid chromatography–tandem mass spectrometry (HPLC–MS/MS) analysis of the obtained samples (Figure 3D). This treatment regimen was chosen due to its common usage in the evaluation of antitumor activity of various low-molecular weight compounds in xenograft murine models. […] Before the HPLC–MS/MS analysis, chromatographic conditions and mass spectrometer parameters for detecting both semisynthetic triterpenoid 12 and the internal standard in the multiple reaction monitoring (MRM) mode were optimized. […]
# To estimate the content of 12 in mouse brain tissue, a set of calibrators was prepared followed by their preparation protocol. The obtained samples were analyzed using the developed HPLC–MS/MS method and a calibration curve was built over the range of concentrations of 10–1000 ng/g. […] The validation of the method for quantification of 12 in mouse brain tissue and investigation of its pharmacokinetics will be the objectives of our next study. […]
# To prepare calibrators, mouse brain tissue samples taken from three healthy untreated animals were pooled and homogenized as described above. […] The obtained supernatants were transferred into vial inserts and analyzed. To quantify 12 in experimental animal brain tissue, a sample weighing c.a. […]
# [3] = test system: U87 cells; assay: Cytotoxicity of 12 with N-acetyl-L-cysteine (MTT); format: cell-based; settings: U87, 12 at 4 µM with NAC, 24 h
# Protocol: To check the ability of 12 to influence ROS production, U87 cells treated with 12 (4 µM) for 24 h were stained with dichlorodihydrofluorescein diacetate (DCFDA) and analyzed by flow cytometry. […] Since ROS play an important role in the regulation of cell death, we further examined whether ROS production mediated the cytotoxicity of 12 with respect to glioblastoma cells.
# In order to understand whether ROS play a crucial role in compound 12-induced cell death, U87 cells were plated in quadruplicate in 96-well plates at a density of 1 × 10^4 cells/well and incubated in the presence of 12 at 4 µM and N-Acetyl-L-cysteine (NAC) at […] for 24 h under standard conditions. Then, cell viability was measured using an MTT test.
# [4] = test system: U87 cells; assay: Colony formation assay, U87; format: cell-based, human; settings: for decrease of surface area covered by cell colonies compared to the control: 14 days
smiles,measurement,setting,value
CC1(C)C(=O)C(C#N)=C[C@]2(C)C3=CC(=O)[C@@H]4[C@@H]5C[C@@](C)(C(=O)NCCc6c[nH]c7ccccc67)CC[C@]5(C)CC[C@@]4(C)[C@]3(C)CC[C@@H]12 [compound 12],IC50,[1],1600 to 1900 nM
same,concentration of 12 in brain tissue of tumor-bearing mice,"[2]; U87 tumor-bearing nude mice, 20 mg/kg i.p.",118 ng/g
same,concentration of 12 in brain tissue,"[2]; nude mice, 50 mg/kg i.p., thrice a week, 48 h after last injection",490 ng/g
same,effect of NAC on cytotoxic effect of 12,[3],complete abrogation of the cytotoxic effect
same,decrease of surface area covered by cell colonies compared to the control,"[4]; U87, 12 at 200 nM",2.1 fold
same,decrease of surface area covered by cell colonies compared to the control,"[4]; U87, 12 at 500 nM",2.4 fold
same,inhibitory effect on clonogenic growth,"[4]; U87, 12 at 50 and 100 nM",statistically insignificant
